Source: patent US20130184310A1, “TREATMENT OF LUPUS ARTHRITIS USING LAQUINIMOD” (Teva Pharmaceutical Industries, Ltd., priority 2010, published 2013)

Key:
[1] = system: (NZBxNZW)F1 mouse model of SLE; settings: MTX 35 μg/mouse p.o. 3 times a week; for immune complex deposition (ICD) in kidney glomeruli: end of experiment (12 weeks) vs vehicle; for immune complex deposition (ICD) in kidney glomeruli / proteinuria (PU): laquinimod 25 mg/kg p.o. daily, CTX 25 mg/ig i.p. once weekly; for proteinuria (PU): week 12 observation vs vehicle (water)
Experimental: (NZBxNZW)F1 are lupus-prone mice that develop an SLE-like disease spontaneously including anti-dsDNA antibodies (Abs), proteinuria and Immune Complex Deposits (ICD).
In a number of studies, the effect of various doses of laquinimod in the (NZBxNZW)F1 model for SLE were assessed. The studies also included a negative control (water) and positive controls including cyclophosphamide (CTX) and methotrexate (MTX).
This study investigated the effect of laquinimod, an immunomodulator of SLE in a murine model of SLE and compared the treatment effect to reference substances CTX and MTX.
Laquinimod and reference compounds CTX and MTX were applied in therapeutic mode, starting the treatment at the time when the characteristic change of murine SLE model, proteinuria (PU) was present in >80% of animals, and the observation and treatment period following this was 12 weeks. Laquinimod was applied p.o. daily, in a dose of 25 mg/kg. CTX was applied once weekly in a dose of 25 mg/ig i.p. MTX was applied 3 times a week p.o. at 35 μg/mouse.
Also, body weight changes were recorded weekly and at the end of experiment both kidneys were preserved, one for possible conventional histology and one for immune complex detection *ICD) in glomeruli. Evaluation of ICD was performed by scoring and by image analysis.
80 animals were involved in the study.

[2] = system: MRL/lpr lupus mouse model; test: Non-GLP in vivo evaluation of laquinimod in the MRL/lpr lupus mouse model (Example 1.4); settings: for kidney glomerulonephritis (histopathology) / salivary gland inflammation (histopathological scoring): laquinimod 5 mg/kg p.o., MMF 100 mg/kg p.o., compared to vehicle
Experimental: This study evaluates the efficacy of laquinimod in the MRL/lpr lupus mouse model.
Animals were monitored until their urine proteinuria reached >200 mg/dL at which time they were enrolled in the study. Animals were dosed with either 1 or 5 mg/kg of laquinimod, p.o., 100 mg/kg mycophenolate mofetil (MMF, CellCept®) p.o., or vehicle (water DDW), p.o., daily except weekends.
Proteinuria, ankle and paw diameters, dsDNA autoantibody levels and survival were monitored during in life portion of the study. At termination, blood samples were harvested for determination of dsDNA autoantibody levels, spleens were harvested and weighed then processed to isolate splenocytes which were counted. Kidney, lung, skin, lymph node, salivary gland and joints were harvested, processed for histological examination and scored by a histopathologist blind to the treatments.

(NZBxNZW)F1 mice [3] = test: Confirmation of efficacy of laquinimod in the (NZBxNZW)F1 model for SLE, 13 weeks (Example 1.3); type: in vivo, mouse
Experimental: This study examined the effect of laquinimod (0.2 and 5 mg/kg) versus CTX and vehicle treated (NZBxNZZW)F1 mice. Seventy mice having spontaneous disease developed by the age of 7 months (as measured by proteinuria) were divided into 4 experimental groups (Water, CTX, Laquinimod 0.2 mg/kg, Laquinimod 5.0 mg/kg,) according to their PU scores. Water and Laquinimod were administered orally (200 μl/mouse) 5 days a week. CTX was administered intraperitonealy once weekly, (200 μl/mouse). Blood samples were collected on weeks 1, 5, and 11. Serum samples were prepared for detection of anti-dsDNA antibodies. After 13 weeks of treatment, mice were sacrificed and immune complex deposits in their kidneys were evaluated.

(NZBxNZW)F1 mice [4] = test: Survival dose response study of laquinimod in the (NZBxNZW)F1 model for SLE, 37 weeks (Example 1.2); type: in vivo, mouse
Experimental: This was a survival dose response study to determine whether laquinimod is effective in suppressing the symptoms in (NZBxNZW)F1 mice. The positive control used was Cytoxan.
Seventy-one mice having spontaneous disease developed by the age of 7 months (as measured by proteinuria) were divided into 6 experimental groups (Water, CTX, Laquinimod 0.2 mg/kg, Laquinimod 1.0 mg/kg, Laquinimod 5.0 mg/kg, Laquinimod 25.0 mg/kg) according to their PU scores.
Water and Laquinimod were administered orally (200 μl/mouse) 5 days a week. CTX was administered intraperitonealy once weekly, (200 μl/mouse). Blood samples were collected on weeks 1, 5, 15 and 37. Serum samples were prepared for detection of anti-dsDNA antibodies. After 37 weeks (257 days) of treatment, mice were sacrificed.

[5] = system: Systemic Lupus Erythematosus (SLE) patients with active lupus arthritis; test: Phase IIa randomized, double-blind, placebo-controlled clinical trial of laquinimod in lupus arthritis (Example 2); type: in vivo, human; settings: daily oral 0.5 mg or 1 mg
Experimental: A multicenter, randomized, double-blind, placebo controlled clinical trial is conducted to evaluate the safety, tolerability, biomarkers and clinical effect of laquinimod (0.5 mg/day and 1 mg/day) in Systemic Lupus Erythematosus (SLE) patients with active lupus arthritis.
Approximately 90 Systemic Lupus Erythematosus patients with active lupus arthritis are enrolled. (approximately 30 subjects per treatment arm). Drop-outs are not replaced.
The overall study duration is up to 20 weeks, with the screening period being up to 2 weeks, the treatment period being 12 weeks and the follow-up period being 4 weeks.
Capsules containing laquinimod 0.5 mg and/or matching placebo are administered orally once daily: • 1. Laquinimod 0.5 mg arm—1 capsule of laquinimod 0.5 mg and 1 matching placebo capsule. • 2. Laquinimod 1 mg arm—2 capsules of laquinimod 0.5 mg. • 3. Placebo arm—2 capsules of placebo.
This is a Phase IIa, randomized, double-blind, placebo-controlled, study to assess the safety, tolerability, pharmacokinetics, biomarkers and clinical effect of two doses of laquinimod in Systemic Lupus Erythematosus patients with active lupus arthritis. This study evaluates the safety, tolerability of two doses of laquinimod (0.5 mg and 1 mg/day) in Systemic Lupus Erythematosus patients with active lupus arthritis. This study also evaluates biomarkers and clinical effect of laquinimod (0.5 mg and 1 mg/day) in Systemic Lupus Erythematosus patients with active lupus arthritis.
Subjects are initially randomized in a 1:1 ratio into one of the following two treatment arms: • 1. Laquinimod 0.5 mg. • 2. Matching placebo.
Enrollment to the 1 mg laquinimod dose group is initiated following the approval of the study safety committee, based on data of at least 10 subjects who have completed at least 4 weeks of treatment. Upon approval, randomization into one of the following three treatment arms occurs in a ratio that allows for reaching an overall target enrollment of approximately 30 subjects per treatment arm. • 1. Laquinimod 0.5 mg. • 2. Laquinimod 1 mg. • 3. Matching placebo.
Scheduled in-clinic visits are conducted at screening, baseline and at weeks 2, 4, 8, 12 and 16.
Treatment with laquinimod/placebo is discontinued on visit week 12 and a follow-up/study completion visit is conducted at week 16. Subjects who early discontinued study drug prior to visit week 12 preferably attend a follow-up study completion visit within 4 weeks (28 days) of treatment termination visit.
During the study period the British Isles Lupus Assessment Group (BILAG) score, SLE Disease Activity Index (SLEDAI 2K), Swollen and Tender joint count, Patient Global Assessment score (PGA), Evaluator Global Assessment score (EGA) and Patient Pain assessment (PtP) are assessed in addition to routine safety laboratory and physical tests, PK analysis and disease related immunology tests/biomarkers.
Response Definitions • BILAG MSK response is defined as change from Musculoskeletal A or B at baseline to C or D at LOV. • BILAG Substantial Responder (SR) is defined as all systems at last observed value (LOV) are C or D/E providing at least one system is A or B at baseline. • SLEDAI 2K response—decrease in SLEDAI of at least 4 point compared to baseline • Medicinal/Interventional flare defined as any of the following • Steroid increase by at least 5 mg/day compared to previous dose or compared to baseline or any IV, IM or Intraarticular dose. • New continuous treatment (>3 days) or increase in dose of NSAIDs or COX2 inhibitors. • New treatment or dose increase with an immunosuppressive drug compared to previous dose or compared to baseline. • Treatment with biologic agents, IVIG or plasmapheresis. • New treatment or dose increase of antimalarial drugs compared to previous dose or compared to baseline.
Lupus Arthritis • 1. […]

[6] = laquinimod 5 mg/kg p.o. compared to vehicle
[7] = laquinimod low dose 0.2 mg/kg orally 5 days a week
[8] = study period, compared to placebo

O=P1(N(CCCl)CCCl)NCCCO1 (stereo not drawn) [CTX, cyclophosphamide]
immune complex deposition (ICD) in kidney glomeruli [1]: significantly inhibited
proteinuria (PU) [1]: significantly diminished the proteinuria

COc1c(C)c2c(c(O)c1C/C=C(\C)CCC(=O)OCCN1CCOCC1)C(=O)OC2 [MMF, mycophenolate mofetil, reference compound]
lung BALT hyperplasia (histopathology) ([2]; MMF 100 mg/kg p.o. vs vehicle): significant difference
kidney glomerulonephritis (histopathology) [2]: significant reductions
salivary gland inflammation (histopathological scoring) [2]: significant reduction

CN(Cc1cnc2nc(N)nc(N)c2n1)c1ccc(C(=O)N[C@@H](CCC(=O)O)C(=O)O)cc1 [MTX, methotrexate]
animals died during the treatment period ([1]; 12 week treatment period, 80 animals in study): 2
immune complex deposition (ICD) in kidney glomeruli [1]: failed to inhibit the symptoms
proteinuria (PU) [1]: failed to inhibit the symptoms

CCN(C(=O)c1c(O)c2c(Cl)cccc2n(C)c1=O)c1ccccc1 [laquinimod]
bone resorption (joint histopathology) ([2]; both doses of laquinimod (1 and 5 mg/kg p.o.) compared to vehicle): Significant reductions
salivary gland inflammation score, higher dose vs lower dose ([2]; laquinimod 5 mg/kg compared with 1 mg/kg): significantly lower score
cartilage damage (joint histopathology) [2, 6]: significant reduction
joint inflammation (histopathology) [2, 6]: significantly reduced
splenocytes as percent of total spleen cells [2, 6]: significant reduction
kidney glomerulonephritis (histopathology) [2]: significant reductions
salivary gland inflammation (histopathological scoring) [2]: significant reduction
measures during the in life phase (proteinuria, ankle and paw diameters, dsDNA autoantibody levels, survival) ([2]; laquinimod 1 or 5 mg/kg p.o., trends not significant except for some sporadic time points): trend toward dose dependent efficacy
anti-dsDNA levels ((NZBxNZW)F1 mice [3]; laquinimod 5 mg/kg orally 5 days a week): behaved similarly to the positive control CTX
immune complex deposits in kidneys ((NZBxNZW)F1 mice [3]; laquinimod 5 mg/kg orally 5 days a week, after 13 weeks): behaved similarly to the positive control CTX
disease progression as measured by proteinuria ((NZBxNZW)F1 mice [3]; laquinimod 0.2 and 5 mg/kg orally 5 days a week, 13 weeks): abrogated disease progression
anti-dsDNA Ab titers ((NZBxNZW)F1 mice [3]; [7]): did not inhibit
proteinuria ((NZBxNZW)F1 mice [3]; [7]): prevented increased proteinuria
ICD (immune complex deposits) ((NZBxNZW)F1 mice [3]; laquinimod low dose 0.2 mg/kg orally 5 days a week, after 13 weeks): did not inhibit
immune complex deposition (ICD) in kidney glomeruli [1]: significantly inhibited
proteinuria (PU) [1]: significantly diminished the proteinuria
progression of proteinuria ((NZBxNZW)F1 mice [4]; all doses of laquinimod (0.2, 1.0, 5.0, 25.0 mg/kg) orally 5 days a week, in comparison to vehicle): abrogated the progression of proteinuria
survival ((NZBxNZW)F1 mice [4]; all doses of laquinimod (0.2-25 mg/kg), 37 weeks of treatment): significant prolongation of survival
proteinuria ((NZBxNZW)F1 mice [4]; laquinimod dose of 0.2 mg/kg orally 5 days a week): abrogated proteinuria but not to the same extent as compared to the higher doses
proteinuria, compared with positive control CTX ((NZBxNZW)F1 mice [4]; laquinimod doses of 1, 5 and 25 mg/kg orally 5 days a week): as effective as the positive control cyclophosphamide (CTX)
anti-dsDNA levels ((NZBxNZW)F1 mice [4]; serum, weeks 1, 5, 15 and 37, laquinimod 0.2-25 mg/kg): dose dependent reduction in antibody levels over time
tolerability ([5]; compared to placebo): well tolerated
toxicity ([5]; compared to placebo): no toxicity
66 swollen/68 tender joint count (JC66/68) ([5]; study period): reduces
C-Reactive Protein level ([5]; study period): lowers
Disease Activity Score using 28 joint counts (DAS28) ([5]; study period): reduces
anti-dsDNA level ([5]; study period): lowers
physician global assessment (PGA) score ([5]; study period): reduces
serum chemokine level ([5]; study period): lowers
serum cytokine level ([5]; study period): lowers
BILAG MSK response [5, 8]: improves
BILAG score [5, 8]: improves
swollen joint count [5, 8]: reduces
tender joint count [5, 8]: reduces
